We go through 25 molecules from US10172814B2, “Substituted pyridyl-cycloalkyl-carboxylic acids, compositions containing them and medical uses thereof” (BAYER PHARMA AKTIENGESELLSCHAFT, priority 2014, dated 2019).

Structures are written as SMILES.

In this assay the target is human PTGES (Homo sapiens (Human), UniProt O14684). Briefly: Human PTGES biochemical enzyme inhibition assay (conversion of PGH2 to PGE2, TR-FRET). The following applies: Enzymatic conversion of PGH2 to PGE2; read-out: Human PTGES IC50. How it is done:
Human PTGES Biochemical Enzyme Inhibition Assay:
PTGES (Microsomal prostaglandin E synthase 1) is an enzyme that converts prostaglandin H2 (PGH2) to prostaglandin E2 (PGE2) in the presence of reduced glutathione (GSH).
Recombinant proteins (human isoforms) of PTGES containing a FLAG tag, expressed in baculovirus infected insect cells (Hi-5) and purified by affinity chromatography was used as enzyme in the assay. Substrate was prostaglandin H2 (Cayman Chemicals).
4 ul of a solution of human PTGES in assay buffer [100 mM sodium phosphate pH 7.2, 2.5 mM Glutathion reduced, 1 mM EDTA, 0.01% BSA, 0.4 mM DTT, 0.15 mM n-dodecylmaltoside] was added to the well containing test compound and incubated for 15-20 minutes to allow binding of the compound to the enzyme prior to the enzymatic reaction. The reaction was started by addition of 1 ul of an ice cold solution containing PGH2 (40 nM in assay buffer resulting in a final concentration of 8 nM PGH2 in the assay). […] The concentration of each isoform of PTGES was adapted to the activity of the respective enzyme preparation to maintain linear reaction properties within the reaction time. […] The reaction was stopped by addition of 1 ul of a solution containing 15 mM SnCl2 and 400 mM KF in water. SnCl2 converts the remaining unstable PGH2 to stable PGF2alpha. Then, 3 ul of the a first detection solution containing PGE2-D2 (Cisbio Bioassays, TR-FRET reagent, diluted according to the manufacturer's recommendation, typically 1:20 in reconstitution buffer) was added. […] The resulting mix was incubated overnight at 4° C. to allow the formation of a complex of PGE2 and the detection reagents. […] Dilution series were made prior to the assay in a 100 fold concentrated form by serial dilution. IC50 values were calculated by 4-Parameter fitting.

Sequence of human PTGES (O14684 whole entry): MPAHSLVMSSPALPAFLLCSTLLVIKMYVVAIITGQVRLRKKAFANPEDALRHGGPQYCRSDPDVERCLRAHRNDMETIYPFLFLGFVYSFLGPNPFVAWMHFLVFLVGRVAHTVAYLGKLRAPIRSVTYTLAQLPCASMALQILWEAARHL

`Cc1ncc(-c2ccc(C(C(=O)Nc3cccc(C(C)CC(=O)O)c3C)C3CCCC3)cc2F)cc1Cl` (single isomer, unassigned; stereoisomer 1) [Example 121, 3-[3-({[4-(5-Chloro-6-methylpyridin-3-yl)-3-fluorophenyl](cyclopentyl)acetyl}amino)-2-methylphenyl]butanoic acid, Stereoisomer 1]: the IC50 came out at 382 nM.

On to `Cc1cncc(-c2ccc(C(C(=O)Nc3cccc(CC(C)C(=O)O)c3C)C3CCCC3)cc2)c1` (stereo not shown) [Example 81, (2R/2S)-3-[3-({(2R/2S)-2-Cyclopentyl-2-[4-(5-methylpyridin-3-yl)phenyl]acetyl}amino)-2-methylphenyl]-2-methylpropanoic acid], for which the IC50 worked out at 172 nM.

With `Cc1c(CCC(=O)O)cccc1NC(=O)C(c1ccc(-c2cccnc2F)cc1)C1CCCC1` (racemic) [Example 23, (R/S) 3-[3-({cyclopentyl[4-(2-fluoro-pyridin-3-yl)-phenyl]-acetyl}amino)-2-methyl-phenyl]propanoic acid], the IC50 worked out at 5260 nM.

`Cc1c(CCC(=O)O)cccc1NC(=O)C(c1ccc(-c2cncc(F)c2)cc1)C1CCC1` (racemic) [Example 60, (R/S) 3-[3-({Cyclobutyl[4-(5-fluoropyridin-3-yl)phenyl]acetyl}amino)-2-methylphenyl]propanoic acid]: the IC50 turned out to be 478 nM.

Consider `CCC(CC(=O)O)c1cccc(NC(=O)C(c2ccc(-c3cncc(F)c3)cc2)C2CCCC2)c1C` (single isomer, unassigned; stereoisomer 4) [Example 106, 3-[3-({[4-(5-Fluoropyridin-3-yl)phenyl](cyclopentyl)acetyl}amino)-2-methylphenyl]pentanoic acid, Stereoisomer 4], for which the IC50 was 156 nM.

As for `Cc1c(CCC(=O)O)cccc1NC(=O)C(c1ccc(-c2cncc(C(F)(F)F)c2)cc1Cl)C1CCCC1` (racemic) [Example 161, (R/S) 3-(3-{[{2-chloro-4-[5-(trifluoromethyl)pyridin-3-yl]phenyl}(cyclopentyl)acetyl]amino}-2-methylphenyl)propanoic acid], the IC50 stood at 278 nM.

Consider `Cc1c(CCC(=O)O)cccc1NC(=O)C(c1ccc(-c2cncc(C(F)(F)F)c2)c(Cl)c1)C1CCCC1` (racemic) [Example 175, (R/S) 3-[3-({[3-chloro-4-(5-(trifluoromethyl)pyridin-3-yl)phenyl](cyclopentyl)acetyl}amino)-2-methylphenyl]propanoic acid], for which the IC50 came out at 34.6 nM.

As to `Cc1c(CCC(=O)O)cccc1NC(=O)C(c1ccc(-c2cncc(C(F)(F)F)c2)cc1)C1CCC1` (single isomer, unassigned; (+)) [Example 56, (+) 3-{3-[(Cyclobutyl{4-[5-(trifluoromethyl)pyridin-3-yl]phenyl}acetyl)amino]-2-methylphenyl}propanoic acid], the IC50 amounted to 7520 nM.

As to `Cc1c(CCC(=O)O)cccc1NC(=O)C(c1ccc(-c2cncc(OC(C)C)c2)c(F)c1)C1CCC1` (single isomer, unassigned; (-)) [Example 209, (−) 3-[3-({cyclobutyl[3-fluoro-4-(5-isopropoxypyridin-3-yl)phenyl]acetyl}amino)-2-methylphenyl]propanoic acid, Single Enantiomer], the IC50 worked out at 39.3 nM.

On to `CCc1cncc(-c2ccc(C(C(=O)Nc3cccc(C(CC)CC(=O)O)c3C)C3CCCC3)cc2F)c1` (single isomer, unassigned) [Example 195, 3-[3-({cyclopentyl[4-(5-ethylpyridin-3-yl)-3-fluorophenyl]acetyl}amino)-2-methylphenyl]pentanoic acid, Single Enantiomer], for which the IC50 came out at 10.5 nM.

For the molecule `Cc1c(CCC(=O)O)cccc1NC(=O)C(c1ccc(-c2cncc(C(C)(C)O)c2)cc1)C1CCCC1` (racemic) [Example 9, (R/S) 3-{3-[(Cyclopentyl{4-[5-(2-hydroxypropan-2-yl)pyridin-3-yl]phenyl}acetyl)amino]-2-methylphenyl}propanoic acid], the IC50 came out at 3560 nM.

Turning to `Cc1cc(C(C(=O)Nc2cccc(CCC(=O)O)c2C)C2CCCC2)c(F)cc1-c1cncc(C(F)(F)F)c1` (racemic) [Example 183, (R/S) 3-{3-[(cyclopentyl{2-fluoro-5-methyl-4-[5-(trifluoromethyl)pyridin-3-yl]phenyl}acetyl)amino]-2-methylphenyl}propanoic acid], the IC50 was determined as 1000 nM.

Turning to `Cc1cc(C(C(=O)Nc2cccc(CCC(=O)O)c2C)C2CCCC2)c(F)cc1-c1cnc(C)c(Cl)c1` (racemic) [Example 182, (R/S) 3-[3-({[4-(5-chloro-6-methylpyridin-3-yl)-2-fluoro-5-methylphenyl](cyclopentyl)acetyl}amino)-2-methylphenyl]propanoic acid], the IC50 stood at 741 nM.

On to `CCOc1cncc(-c2ccc(C(C(=O)Nc3cccc(CCC(=O)O)c3C)C3CCCC3)cc2F)c1` (racemic) [Example 46, (R/S) 3-[3-({Cyclopentyl[4-(5-ethoxypyridin-3-yl)-3-fluorophenyl]acetyl}amino)-2-methylphenyl]propanoic acid], for which the IC50 was 55.3 nM.

Regarding `Cc1c(NC(=O)C(c2ccc(-c3cncc(C(F)(F)F)c3)c(F)c2)C2CCC2)cccc1C(C)CC(=O)O` (mixture of isomers) [Example 146, 3-{3-[(Cyclobutyl{3-fluoro-4-[5-(trifluoromethyl)pyridin-3-yl]phenyl}acetyl)amino]-2-methylphenyl}butanoic acid, Stereoisomeric Mixture 1], the IC50 was found to be 12.6 nM.

Consider `Cc1c(NC(=O)C(c2ccc(-c3cncc(Cl)c3)c(F)c2)C2CCC2)cccc1C(C)CC(=O)O` (stereo not shown) [Example 149], for which the IC50 amounted to 52.1 nM.

As to `Cc1cc(C(C(=O)Nc2cccc(CCC(=O)O)c2C)C2CCCC2)c(F)cc1-c1cncc(Cl)c1` (racemic) [Example 181, (R/S) 3-[3-({[4-(5-chloropyridin-3-yl)-2-fluoro-5-methylphenyl](cyclopentyl)acetyl}amino)-2-methylphenyl]propanoic acid], the IC50 is 2300 nM.

For the molecule `Cc1ncc(-c2ccc(C(C(=O)Nc3cccc(C(C)CC(=O)O)c3C)C3CCCC3)cc2)cc1Cl` (mixture of isomers) [Example 97, (3R/S)-3-[3-({(2R/S)-2-[4-(5-Chloro-6-methylpyridin-3-yl)phenyl]-2-cyclopentylacetyl}amino)-2-methylphenyl]butanoic acid], the IC50 was found to be 13 nM.

For the molecule `CCOc1cncc(-c2ccc(C(C(=O)Nc3cccc(C4CC4C(=O)O)c3C)C3CCCC3)cc2)c1` (stereo not shown) [Example 155, 2-[3-({2-cyclopentyl-2-[4-(5-ethoxypyridin-3-yl)phenyl]acetyl}amino)-2-methylphenyl]cyclopropanecarboxylic acid], the IC50 stood at 158 nM.

Regarding `Cc1c(CC(C)C(=O)O)cccc1NC(=O)C(c1ccc(-c2cncc(OC(F)F)c2)cc1)C1CCCC1` (stereo not shown) [Example 80, (2R/2S)-3-(3-{[(2R/2S)-2-Cyclopentyl-2-{4-[5-(difluoromethoxy)pyridin-3-yl]phenyl}acetyl]amino}-2-methylphenyl)-2-methylpropanoic acid], the IC50 came out at 88.5 nM.

Turning to `COc1ncccc1-c1ccc(C(C(=O)Nc2cccc(CCC(=O)O)c2C)C2CCCC2)cc1` (racemic) [Example 20, (R/S) 3-[3-({Cyclopentyl[4-(2-methoxypyridin-3-yl)-phenyl]acetyl}amino)-2-methylphenyl]propanoic acid], the IC50 is 2550 nM.

Consider `Cc1cc(-c2ccc(C(C(=O)Nc3cccc(CC(C)C(=O)O)c3C)C3CCCC3)cc2)cnc1C` (stereo not shown) [Example 78, (2R/2S)-3-[3-({(2R/2S)-2-Cyclopentyl-2-[4-(5,6-dimethylpyridin-3-yl)phenyl]acetyl}amino)-2-methylphenyl]-2-methylpropanoic acid], for which the IC50 was determined as 118 nM.

As to `Cc1c(NC(=O)C(c2ccc(-c3cncc(C(F)(F)F)c3)cc2)C2CCCC2)cccc1C(CC(=O)O)C1CC1` (mixture of isomers) [Example 109, (3R/S)-3-(3-{[(2R/S)-2-cyclopentyl-2-{4-[5-(trifluoromethyl)pyridin-3-yl]phenyl}acetyl]amino}-2-methylphenyl)-3-cyclopropylpropanoic acid], the IC50 worked out at 24.9 nM.

On to `Cc1c(NC(=O)C(c2ccc(-c3cncc(F)c3)cc2)C2CCCC2)cccc1C(CC(=O)O)C1CC1` (mixture of isomers) [Example 112, (3R/S)-3-[3-({(2R/S)-2-cyclopentyl-2-[4-(5-fluoropyridin-3-yl)phenyl]acetyl}amino)-2-methylphenyl]-3-cyclopropylpropanoic acid], for which the IC50 came to 51.9 nM.

Consider `Cc1c(NC(=O)C(c2ccc(-c3cncc(Cl)c3)cc2)C2CCC2)cccc1C(C)CC(=O)O` (single isomer, unassigned; stereoisomer 2) [Example 137], for which the half-maximal inhibitory concentration (IC50) was found to be 2900 nM.
